Assay results from the SangsterLogP compilation.

Row | SMILES | logP
1 | CC(C)C(=O)NCCCN1CCc2ccccc2C1 | 2.56
2 | O=C(NCCCCN1CCc2ccccc2C1)C1CCC2CCCC21 (configuration not stated) | 4.46
3 | O=C(CC1CC2CCC1C2)NCCCCN1CCc2ccccc2C1 (configuration not stated) | 4.58
4 | CC(C)(C)C(=O)NCCCCN1CCc2ccccc2C1 | 3.31
5 | CC(C)C(=O)NCCN1CCc2ccccc2C1 | 2.87
6 | CC(=O)NCCCCN1CCc2ccccc2C1 | 2.3
7 | CC(C)(C)C(=O)NCCN1CCc2ccccc2C1 | 3.13
8 | CC(=O)NCCCN1CCc2ccccc2C1 | 2.66
9 | O=C(NCCCN1CCc2ccccc2C1)C12CC3CC(CC(C3)C1)C2 | 5.14
10 | CC(C)(C)C(=O)NCCCN1CCc2ccccc2C1 | 3.46
11 | O=C(NCCN1CCc2ccccc2C1)C12CC3CC(CC(C3)C1)C2 | 4.61
12 | CC(C)C(=O)NCCCCN1CCc2ccccc2C1 | 2.93
13 | O=C(NCCCCN1CCc2ccccc2C1)C12CC3CC(CC(C3)C1)C2 | 4.82
14 | O=C(CC1CC2CCC1C2)NCCN1CCc2ccccc2C1 (configuration not stated) | 4.26

Results, then the compound that gave them:

Row | logP | SMILES
15 | 3.02 | O=C(NCCCCN1CCc2ccccc2C1)C1CC1
16 | 3.45 | O=C(NCCCN1CCc2ccccc2C1)C1CCCC1
17 | 3.44 | O=C(NCCCN1CCc2ccccc2C1)C1CCCCC1
18 | 3.52 | O=C(NCCN1CCc2ccccc2C1)C1CCCC1
19 | 3.12 | O=C(NCCCN1CCc2ccccc2C1)C1CCC1
20 | 3.14 | O=C(NCCN1CCc2ccccc2C1)C1CCCCC1
21 | 2.75 | O=C(NCCCN1CCc2ccccc2C1)C1CC1
22 | 2.9 | O=C(NCCN1CCc2ccccc2C1)C1CCC1
23 | 3.3 | O=C(NCCCCN1CCc2ccccc2C1)C1CCC1
24 | 1.83 | CC(=O)NCCN1CCc2ccccc2C1
25 | 4.37 | O=C(NCCN1CCc2ccccc2C1)C1CCC2CCCC21 (configuration not stated)
26 | 2.76 | O=C(NCCN1CCc2ccccc2C1)C1CC1
27 | 4.5 | O=C(NCCCN1CCc2ccccc2C1)C1CCC2CCCC21 (configuration not stated)
